Assay results: patent US20230085307A1, “PYRIDAZINONE COMPOUND AND HERBICIDE” (NISSAN CHEMICAL CORPORATION, priority 2019, published 2023)

Columns and labels:
green foxtail [1] = experiment: Test Example 4: herbicidal effect by soil treatment (Table 19, symbol G); assay type: in vivo, green foxtail (Setaria viridis); conditions: amount of applied herbicide 272 g/ha
In short: (§1)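 Emulsion of test compound, water-diluted to predetermined amount, sprayed on soil after sowing (seed depth ~1.5 cm, sterilized diluvial soil). Greenhouse, 25–30° C. Effect graded at three weeks post-spray.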

blackgrass [2] = experiment: Test Example 5: herbicidal effect by foliage application, plastic box (Table 20, symbol J); assay type: in vivo, blackgrass (Alopecurus myosuroides); conditions: amount of applied herbicide 272 g/ha; foliage application after 14-day growth; evaluated three weeks after application
In short: (§2)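 Post-emergence foliar test in sterilized diluvial soil. Compound applied as water-diluted emulsion at a predetermined rate to 14-day-old plants; evaluation at three weeks.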

southern crabgrass [3] = experiment: Test Example 5: herbicidal effect by foliage application, plastic box (Table 20, symbol F); assay type: in vivo, southern crabgrass (Digitaria ciliaris); conditions: amount of applied herbicide 272 g/ha; foliage application after 14-day growth; evaluated three weeks after application
In short: as §2

blackgrass [4] = experiment: Test Example 4: herbicidal effect by soil treatment (Table 19, symbol J); assay type: in vivo, blackgrass (Alopecurus myosuroides); conditions: amount of applied herbicide 272 g/ha
In short: as §1

barnyard grass [5] = experiment: Test Example 4: herbicidal effect by soil treatment (Table 19, symbol H); assay type: in vivo, barnyard grass (Echinochloa crus-galli); conditions: amount of applied herbicide 272 g/ha
In short: as §1

Chinese sprangletop = experiment: Test Example 3: herbicidal effect by foliage application, Wagner pot (Table 18, symbol D); assay type: in vivo, chinese sprangletop (Leptochloa chinensis); conditions: 272 g/ha
In short: (§3)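 Plants were sown in alluvial soil held under 0.1–0.5 cm standing water and grown 14 days in a greenhouse at 25–30 °C. An emulsifiable formulation, water-diluted to the set dose, was then sprayed onto the foliage, and effects were scored three weeks later using previously defined criteria.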

velvetleaf [6] = experiment: Test Example 4: herbicidal effect by soil treatment (Table 19, symbol M); assay type: in vivo, velvetleaf (Abutilon theophrasti); conditions: amount of applied herbicide 272 g/ha
In short: as §1

windgrass = experiment: Test Example 4: herbicidal effect by soil treatment (Table 19, symbol L); assay type: in vivo, windgrass (Apera spica-venti); conditions: amount of applied herbicide 272 g/ha
In short: as §1

persian speedwell [7] = experiment: Test Example 5: herbicidal effect by foliage application, plastic box (Table 20, symbol R); assay type: in vivo, Persian speedwell (Veronica persica); conditions: amount of applied herbicide 272 g/ha; foliage application after 14-day growth; evaluated three weeks after application
In short: as §2

redroot pigweed [8] = experiment: Test Example 5: herbicidal effect by foliage application, plastic box (Table 20, symbol N); assay type: in vivo, redroot pigweed (Amaranthus retroflexus); conditions: amount of applied herbicide 272 g/ha; foliage application after 14-day growth; evaluated three weeks after application
In short: as §2

southern crabgrass [9] = experiment: Test Example 4: herbicidal effect by soil treatment (Table 19, symbol F); assay type: in vivo, southern crabgrass (Digitaria ciliaris); conditions: amount of applied herbicide 272 g/ha
In short: as §1

persian speedwell [10] = experiment: Test Example 4: herbicidal effect by soil treatment (Table 19, symbol R); assay type: in vivo, Persian speedwell (Veronica persica); conditions: amount of applied herbicide 272 g/ha
In short: as §1

green foxtail [11] = experiment: Test Example 5: herbicidal effect by foliage application, plastic box (Table 20, symbol G); assay type: in vivo, green foxtail (Setaria viridis); conditions: amount of applied herbicide 272 g/ha; foliage application after 14-day growth; evaluated three weeks after application
In short: as §2

chickweed [12] = experiment: Test Example 5: herbicidal effect by foliage application, plastic box (Table 20, symbol P); assay type: in vivo, common chickweed (Stellaria media); conditions: amount of applied herbicide 272 g/ha; foliage application after 14-day growth; evaluated three weeks after application
In short: as §2

Italian ryegrass [13] = experiment: Test Example 4: herbicidal effect by soil treatment (Table 19, symbol K); assay type: in vivo, Italian ryegrass (Lolium multiflorum); conditions: amount of applied herbicide 272 g/ha
In short: as §1

lambsquarters = experiment: Test Example 4: herbicidal effect by soil treatment (Table 19, symbol O); assay type: in vivo, lambsquarters (Chenopodium album); conditions: amount of applied herbicide 272 g/ha
In short: as §1

rice flat sedge = experiment: Test Example 3: herbicidal effect by foliage application, Wagner pot (Table 18, symbol E); assay type: in vivo, rice flat sedge (Cyperus iria); conditions: 272 g/ha
In short: as §3

barnyard grass [14] = experiment: Test Example 5: herbicidal effect by foliage application, plastic box (Table 20, symbol H); assay type: in vivo, barnyard grass (Echinochloa crus-galli); conditions: amount of applied herbicide 272 g/ha; foliage application after 14-day growth; evaluated three weeks after application
In short: as §2

wild oat [15] = experiment: Test Example 4: herbicidal effect by soil treatment (Table 19, symbol I); assay type: in vivo, wild oat (Avena fatua); conditions: amount of applied herbicide 272 g/ha
In short: as §1

velvetleaf [16] = experiment: Test Example 5: herbicidal effect by foliage application, plastic box (Table 20, symbol M); assay type: in vivo, velvetleaf (Abutilon theophrasti); conditions: amount of applied herbicide 272 g/ha; foliage application after 14-day growth; evaluated three weeks after application
In short: as §2

Italian ryegrass [17] = experiment: Test Example 5: herbicidal effect by foliage application, plastic box (Table 20, symbol K); assay type: in vivo, Italian ryegrass (Lolium multiflorum); conditions: amount of applied herbicide 272 g/ha; foliage application after 14-day growth; evaluated three weeks after application
In short: as §2

chickweed [18] = experiment: Test Example 4: herbicidal effect by soil treatment (Table 19, symbol P); assay type: in vivo, common chickweed (Stellaria media); conditions: amount of applied herbicide 272 g/ha
In short: as §1

barnyard grass [19] = experiment: Test Example 3: herbicidal effect by foliage application, Wagner pot (Table 18, symbol H); assay type: in vivo, barnyard grass (Echinochloa crus-galli); conditions: 272 g/ha
In short: as §3

wild oat [20] = experiment: Test Example 5: herbicidal effect by foliage application, plastic box (Table 20, symbol I); assay type: in vivo, wild oat (Avena fatua); conditions: amount of applied herbicide 272 g/ha; foliage application after 14-day growth; evaluated three weeks after application
In short: as §2

redroot pigweed [21] = experiment: Test Example 4: herbicidal effect by soil treatment (Table 19, symbol N); assay type: in vivo, redroot pigweed (Amaranthus retroflexus); conditions: amount of applied herbicide 272 g/ha
In short: as §1

CCCC(=O)Oc1c(C)nn(C)c(=O)c1-c1c(-c2ccccc2OC(F)F)sc2cc(F)c(F)cc12 [5-022]
G: green foxtail, herbicidal effect grade (green foxtail [1]): 3 (Herbicidal rate of 40% or more and less than 70%)
Herbicidal effect by foliage application, J: blackgrass (blackgrass [2]): 1 (Herbicidal rate of 5% or more and less than 20%)
Herbicidal effect by foliage application, F: southern crabgrass (southern crabgrass [3]): 4 (Herbicidal rate of 70% or more and less than 90%)
J: blackgrass, herbicidal effect grade (blackgrass [4]): 0 (Herbicidal rate of 5% or less (almost no effect))
H: barnyard grass, herbicidal effect grade (barnyard grass [5]): 0 (Herbicidal rate of 5% or less (almost no effect))
herbicidal effect on Chinese sprangletop (D) (Chinese sprangletop): 3 (Herbicidal rate of 40% or more and less than 70%)
M: velvetleaf, herbicidal effect grade (velvetleaf [6]): 3 (Herbicidal rate of 40% or more and less than 70%)
L: windgrass, herbicidal effect grade (windgrass): 0 (Herbicidal rate of 5% or less (almost no effect))
Herbicidal effect by foliage application, R: persian speedwell (persian speedwell [7]): 4 (Herbicidal rate of 70% or more and less than 90%)
Herbicidal effect by foliage application, N: redroot pigweed (redroot pigweed [8]): 5 (Herbicidal rate of 90% or more (almost completely withered))
F: southern crabgrass, herbicidal effect grade (southern crabgrass [9]): 1 (Herbicidal rate of 5% or more and less than 20%)
R: persian speedwell, herbicidal effect grade (persian speedwell [10]): 3 (Herbicidal rate of 40% or more and less than 70%)
Herbicidal effect by foliage application, G: green foxtail (green foxtail [11]): 5 (Herbicidal rate of 90% or more (almost completely withered))
Herbicidal effect by foliage application, P: chickweed (chickweed [12]): 5 (Herbicidal rate of 90% or more (almost completely withered))
K: Italian ryegrass, herbicidal effect grade (Italian ryegrass [13]): 0 (Herbicidal rate of 5% or less (almost no effect))
O: lambsquarters, herbicidal effect grade (lambsquarters): 3 (Herbicidal rate of 40% or more and less than 70%)
herbicidal effect on rice flat sedge (E) (rice flat sedge): 3 (Herbicidal rate of 40% or more and less than 70%)
Herbicidal effect by foliage application, H: barnyard grass (barnyard grass [14]): 3 (Herbicidal rate of 40% or more and less than 70%)
I: wild oat, herbicidal effect grade (wild oat [15]): 0 (Herbicidal rate of 5% or less (almost no effect))
Herbicidal effect by foliage application, M: velvetleaf (velvetleaf [16]): 5 (Herbicidal rate of 90% or more (almost completely withered))
Herbicidal effect by foliage application, K: Italian ryegrass (Italian ryegrass [17]): 0 (Herbicidal rate of 5% or less (almost no effect))
P: chickweed, herbicidal effect grade (chickweed [18]): 3 (Herbicidal rate of 40% or more and less than 70%)
herbicidal effect on barnyard grass (H) (barnyard grass [19]): 4 (Herbicidal rate of 70% or more and less than 90%)
Herbicidal effect by foliage application, I: wild oat (wild oat [20]): 0 (Herbicidal rate of 5% or less (almost no effect))
N: redroot pigweed, herbicidal effect grade (redroot pigweed [21]): 4 (Herbicidal rate of 70% or more and less than 90%)
